One assay deals with T1, hTRPML3-YFP (Homo sapiens, UniProt Q8TDD5).
T1 construct: expressed in transfected cells
The experiment in a line: Fluo-4 Ca2+ influx assay, HEK293 stably expressing hTRPML3-YFP, activated with ML-SA1. In kind it is cell-based. As to the method: (§1) To identify inhibitors of TRPML1 and TRPML3, the Spectrum Collection compound library (MS Discoveries; 2000 compounds) and additional 430 bioactive compounds were screened. To this end, fluorometric Ca^2+ influx assays were performed by using the calcium dye Fluo-4/AM (Invitrogen, Thermo Fisher Scientific, Waltham, MA, USA) and a custom-made fluorescence imaging plate reader built into a robotic liquid handling station (Freedom Evo 150, Tecan, Männedorf, Switzerland). All measurements were done in a HEPES buffered solution (HBS), containing 132 mM NaCl, 6 mM KCl, 1 mM MgCl2, 1 mM CaCl2, 5.5 mM D-glucose, 10 mM HEPES, pH 7.4. Screening compounds dissolved in DMSO (10 mM) were prediluted in 150 mM NaCl, 20 mM HEPES, pH 7.4, to a concentration of 200 µM. For primary screens, HEK293 stably expressing plasma membrane-targeted TRPML1 or TRPML3 were trypsinized and resuspended in cell culture medium supplemented with 4 µM Fluo-4/AM. After incubation at 37 °C for 30 min, the cell suspension was briefly centrifuged resuspended in HBS, and dispensed into black pigmented, clear-bottom 384-well microwell plates (Greiner μClear, Frickenhausen, Germany). Plates were placed into the FLIPR and fluorescence signals (excitation 470 nm, emission 515 nm) were recorded with a Zyla 5.5 camera (Andor, Belfast, UK) and the μManager software like previously described. In a first video, compound libraries were successively added to the cells with the Tecan 96-tip multichannel arm to a final concentration of 20 µM to map unspecific effects like autofluorescence or toxicity. In a second step the agonist ML-SA1 was pipetted in each well and fluorescence signals were recorded for 10 min. Analyses were done by calculating fluorescence intensities for each well and background areas with ImageJ (National Institutes of Health, Bethesda, MD, USA). Finally, the background was subtracted and the fluorescence intensities were normalized to initial intensities (F/F0). Concentration response curves were generated by the same procedure but compounds were manually prediluted in 96-well plates containing HBS, now supplemented with 0.1% bovine serum albumin. Here data was fitted to a four-parameter Hill equation to obtain Imin, Imax, IC50), and the Hill coefficient n.

In a further assay the target is T2, hTRPML2-YFP (Homo sapiens, UniProt Q8IZK6).
T2 construct: expressed in transfected cells
T2 sequence (Q8IZK6 1-566): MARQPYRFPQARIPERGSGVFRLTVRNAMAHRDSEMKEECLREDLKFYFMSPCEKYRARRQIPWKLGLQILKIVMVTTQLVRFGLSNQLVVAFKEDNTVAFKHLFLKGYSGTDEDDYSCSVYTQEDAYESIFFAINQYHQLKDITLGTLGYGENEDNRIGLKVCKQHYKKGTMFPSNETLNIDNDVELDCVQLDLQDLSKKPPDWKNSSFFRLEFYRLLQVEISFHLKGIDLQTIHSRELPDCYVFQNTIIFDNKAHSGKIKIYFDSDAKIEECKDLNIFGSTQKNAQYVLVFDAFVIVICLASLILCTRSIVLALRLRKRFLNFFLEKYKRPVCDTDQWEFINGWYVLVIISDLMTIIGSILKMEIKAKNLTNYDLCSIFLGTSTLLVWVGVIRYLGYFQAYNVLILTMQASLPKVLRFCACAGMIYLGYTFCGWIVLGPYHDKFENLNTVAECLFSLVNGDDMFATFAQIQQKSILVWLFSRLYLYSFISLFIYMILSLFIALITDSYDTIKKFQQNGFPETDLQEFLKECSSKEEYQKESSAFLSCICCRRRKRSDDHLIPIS
The experiment in a line: Fluo-4 Ca2+ influx assay, HEK293 stably expressing hTRPML2-YFP, activated with ML-SA1. Type of assay: cell-based.

For the next assay, the system named is LC3. Nature of the assay: Autophagy assay, LC3 immunoblot in human fibroblasts (Fed/Hbss, with bafilomycin A1). The following applies: Hbss starvation, with BafA1. In kind it is cell-based. As to the method: 5 × 10^4 wild-type human fibroblasts were seeded in a 12-well plate and treated overnight with DMSO or different TRPML1 inhibitors (EDME, PRU-10, PRU-12). The day after, cells were treated for 3 h in full media (Fed) or HBSS supplemented with 10 mM HEPES (nutrient starved) in presence of DMSO or different TRPML1 inhibitors (EDME, PRU-10, PRU-12). For autophagic flux experiments, cells were co-treated with 100 nM of bafilomycin A1 (Sigma).
Total cell lysates were prepared using TRIS HCl 10 mM pH 8.0 and 0.2% SDS supplemented with protein and phosphatase inhibitors (Sigma). Protein concentration was determined using the Bradford method. After SDS–polyacrylamide gel electrophoresis (PAGE) and immunoblotting, the protein recognized by the specific antibody was visualized by chemiluminescence methods (Luminata Crescendo Western HRP substrate, Millipore) using HRP-conjugated anti-rabbit or anti-mouse secondary antibodies (Cell Signalling). Images were acquired using Li-Cor Odyssey Fc Imaging System and densitometric quantification of unsaturated images was performed using ImageJ software (NIH). Uncropped and unprocessed western blot scans are provided as Fig. S1. The following primary antibodies were used: LC3 (Novus Cat. No. NB100-2220, 1:1000 in 5% milk), TFEB (Cell Signaling Cat. No. 4240, 1:1000 in 5% BSA) and β-actin (Santa Cruz Cat. No. Sc-47778, 1: 1000 in 5% BSA).
(In western blotting, separated proteins are transferred to a membrane and probed.)

Assay [1] has as its target T3, hTRPML1∆NC-YFP (Homo sapiens, UniProt Q9GZU1). In kind it is cell-based. As to conditions: for IC50: read-out: TRPML1 IC50, Fluo-4, 5 µM ML-SA1, Fig. 2a/4, Table S1. As to the method: as §1, with “All measurements were done in a HEPES buffered solution (HBS), containing 132 mM NaCl, 6 mM KCl, 1 mM MgCl2, 1 mM CaCl2, 5.5 mM D-glucose, 10 mM HEPES, pH 7.4.” left out
Assay [2] has as its system hTRPML1∆NC-YFP. In kind it is cell-based, human. The procedure: as §1, with “All measurements were done in a HEPES buffered solution (HBS), containing 132 mM NaCl, 6 mM KCl, 1 mM MgCl2, 1 mM CaCl2, 5.5 mM D-glucose, 10 mM HEPES, pH 7.4.” left out
For assay [3], the target named is T3, hTRPML1∆NC-YFP. As to conditions: 10 µM compound after 10 µM ML-SA1. The procedure:
Single cell Ca^2+ imaging experiments were performed using Fura-2 as previously described. HEK293 cells stably expressing hTRPML1∆NC-YFP, hTRPML2-YFP, hTPPML3-YFP or hTPC2L11A/L12A-RFP (22, 24) were cultured at 37 °C with 5% of CO2 in Dulbecco’s modified Eagle medium (Thermo Fisher), supplemented with 10% fetal bovine serum, 100 U/mL penicillin, and 0.1 mg/mL streptomycin. Cells were plated onto poly-L-lysine (sigma)-coated glass coverslips and grown for 2–3 days. For Ca^2+ imaging experiments cells were loaded for 1 h at room temperature with Fura-2 AM (4.0 µM) and 0.005% (v/v) pluronic acid (both from Thermo Fisher) in HEPES-buffered solution (HBS) comprising 138 mM NaCl, 6 mM KCl, 2 mM MgCl2, 2 mM CaCl2, 10 mM HEPES, and 5.5 mM D-glucose (adjusted to pH 7.4 with NaOH). After loading, cells were washed with HBS and mounted in an imaging chamber. All recordings were performed in HBS. Ca^2+ imaging was performed using a Leica DMi8 live cell microscope. Fura-2 was excited at 340 nm/380 nm. Emitted fluorescence was captured using 515 nm long-pass filter. Compounds were pre diluted in DMSO and stored as 10 mM stock solutions at − 20 °C, not exceeding three months. Working solutions were prepared directly before using by dilution with HBS.

In another assay the target is T4, human ERα (Homo sapiens, UniProt P03372).
T4 construct: host or cells: Saccharomyces cerevisiae
The experiment in a line: Yeast estrogen receptor assay (YES-assay), Saccharomyces cerevisiae transfected with human ERα, lacZ reporter. In kind it is cell-based. The following applies: 0.01-100 µM, 48 h. The procedure: The yeast estrogen receptor assay (YES-assay) was provided by Dr. J.P. Sumpter (Brunel University, Uxbridge, UK; Routledge & Sumpter, 1996) and was used to determine the relative transactivation activity of the human ERα in response to test substances as previously described. Briefly, Saccharomyces cerevisiae stably transfected with a human ERα construct and an estrogen responsive element fused to the reporter gene lacZ encoding for β-galactosidase were treated with the test substances for 48 h. The β-galactosidase enzymatic activity was measured in a colorimetric assay using the substrate chlorophenol red β-D-galactopyranoside (Roche Diagnostics, Mannheim Germany). Formation of chlorophenol red was measured at 540 nm. For the test, all compounds were diluted in DMSO. 17β-estradiol (10 nM; Sigma, Deisenhofen, Germany) served as positive control and DMSO was used as vehicle control. All compounds, were dose dependently tested in a concentration range of 0.01–100 µM, using technical quadruplicates and biological triplicates.

Setting [4] is: Fluo-4, 5 µM ML-SA1, Table S1, read-out: TRPML3 IC50.
Where [5] appears, read: TRPML2 IC50, Fluo-4, 5 µM ML-SA1, Table S1.

These results are taken from PMC8050276, “Estradiol analogs attenuate autophagy, cell migration and invasion by direct and selective inhibition of TRPML1, independent of estrogen receptors” (Scientific Reports, 2021).

As usually defined, the IC50 is the concentration needed to halve the response being measured.

Each structure is given as a SMILES string. “And” between values parts separate entries of the source, which are not always exact repeats. Equal entries are not always repeated. “Also recorded” adds a separate entry of the source. Where two headings read alike, the source gives them in different places.

T3 sequence (Q9GZU1 whole entry): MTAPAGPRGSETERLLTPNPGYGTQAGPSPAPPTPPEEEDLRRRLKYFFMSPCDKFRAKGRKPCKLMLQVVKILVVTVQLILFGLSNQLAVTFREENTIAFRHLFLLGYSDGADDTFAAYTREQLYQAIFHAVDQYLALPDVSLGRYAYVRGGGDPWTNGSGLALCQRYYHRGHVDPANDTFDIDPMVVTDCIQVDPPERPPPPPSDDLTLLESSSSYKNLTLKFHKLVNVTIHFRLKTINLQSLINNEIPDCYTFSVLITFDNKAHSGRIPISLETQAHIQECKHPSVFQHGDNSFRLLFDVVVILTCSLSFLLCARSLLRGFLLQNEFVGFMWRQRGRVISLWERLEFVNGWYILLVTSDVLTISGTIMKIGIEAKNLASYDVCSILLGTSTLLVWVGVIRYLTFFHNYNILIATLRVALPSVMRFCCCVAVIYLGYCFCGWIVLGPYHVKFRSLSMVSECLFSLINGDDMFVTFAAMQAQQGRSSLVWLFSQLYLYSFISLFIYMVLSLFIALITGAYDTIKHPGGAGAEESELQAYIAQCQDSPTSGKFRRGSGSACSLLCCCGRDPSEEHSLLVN
T1 sequence (Q8TDD5 whole entry): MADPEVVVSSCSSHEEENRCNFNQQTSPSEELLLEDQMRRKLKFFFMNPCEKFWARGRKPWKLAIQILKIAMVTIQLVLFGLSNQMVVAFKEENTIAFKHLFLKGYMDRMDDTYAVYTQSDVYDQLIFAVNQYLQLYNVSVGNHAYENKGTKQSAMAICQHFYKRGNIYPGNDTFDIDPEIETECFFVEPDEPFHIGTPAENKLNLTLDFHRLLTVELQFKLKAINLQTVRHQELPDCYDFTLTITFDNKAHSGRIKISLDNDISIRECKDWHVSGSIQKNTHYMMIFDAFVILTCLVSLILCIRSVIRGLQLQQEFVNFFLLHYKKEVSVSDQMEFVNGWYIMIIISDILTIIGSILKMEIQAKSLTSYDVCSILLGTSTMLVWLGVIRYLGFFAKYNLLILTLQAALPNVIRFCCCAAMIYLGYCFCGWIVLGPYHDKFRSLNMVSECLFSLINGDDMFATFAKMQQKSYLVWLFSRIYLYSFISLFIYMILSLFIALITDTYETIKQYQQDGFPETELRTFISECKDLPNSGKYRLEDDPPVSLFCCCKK
T4 sequence (P03372 whole entry): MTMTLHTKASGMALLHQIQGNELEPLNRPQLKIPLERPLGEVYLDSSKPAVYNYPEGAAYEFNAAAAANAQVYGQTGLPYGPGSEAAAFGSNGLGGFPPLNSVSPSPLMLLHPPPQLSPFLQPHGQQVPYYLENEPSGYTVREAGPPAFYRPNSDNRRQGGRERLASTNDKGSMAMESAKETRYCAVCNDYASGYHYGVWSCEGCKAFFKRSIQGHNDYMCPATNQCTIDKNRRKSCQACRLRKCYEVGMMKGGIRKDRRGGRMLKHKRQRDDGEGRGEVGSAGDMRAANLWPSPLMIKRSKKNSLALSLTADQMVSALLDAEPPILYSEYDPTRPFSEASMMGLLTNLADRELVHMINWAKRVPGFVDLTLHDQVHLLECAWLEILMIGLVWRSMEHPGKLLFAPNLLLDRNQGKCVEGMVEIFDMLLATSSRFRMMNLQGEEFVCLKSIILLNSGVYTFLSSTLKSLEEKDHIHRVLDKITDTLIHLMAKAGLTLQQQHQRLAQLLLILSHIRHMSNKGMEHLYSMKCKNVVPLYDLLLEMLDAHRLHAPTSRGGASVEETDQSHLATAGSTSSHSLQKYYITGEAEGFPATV

For the compound `C[C@]12CC[C@@H]3c4ccc(O)cc4CC[C@H]3[C@@H]1CC[C@@H]2O` [Estradiol, 17β-estradiol], the values for the IC50 on hTRPML3-YFP (setting [4]), at hTRPML2-YFP (setting [5]) and on hTRPML1∆NC-YFP [1] were > 50 µM, 30.4 µM and 5.3 µM, respectively. In addition, the “concentration showing efficacy on autophagy (LC3)” value in the assay on LC3 was found to be 10 µM. The “effect on autophagy (LC3) at 10 nM or 1 µM” value with LC3 is “no effect”. Besides, the “TRPML1 versus TRPML3 selectivity” value in the assay with hTRPML1∆NC-YFP [2] (Fluo-4, TRPML1 vs TRPML3, 5 µM ML-SA1) is recorded as “stronger inhibitory effects on TRPML1 than on TRPML3”. The “TRPML1:TRPML2 fold selectivity” value in the assay with hTRPML1∆NC-YFP [2] (ratio of Fluo-4 IC50 values) is given as 5.77 fold.

For `COc1ccc2c(c1)CC[C@@H]1[C@@H]2CC[C@]2(C)[C@H](O)CC[C@@H]12` [PRU-2], at hTRPML1∆NC-YFP [3], the “efficacy in blocking TRPML1, Fura-2” value is recorded as “exception”. Also, on human ERα, the “effect/efficacy at ERα” value is “relatively low efficacy; also recorded: weakest effects”. Further, the IC50 against hTRPML3-YFP is > 50 µM; at hTRPML2-YFP (Fluo-4, 5 µM ML-SA1, Table S1, read-out: TRPML2 IC50), 37 µM; at hTRPML1∆NC-YFP [1] it was 13.8 µM and 14 µM. Further, at hTRPML1∆NC-YFP [1] (Fluo-4, 5 µM ML-SA1), the “activity in concentration-response measurements on TRPML1” value is recorded as “only poor activity”. In addition, the “TRPML1:TRPML2 fold selectivity” value in the assay with hTRPML1∆NC-YFP [2] (ratio of Fluo-4 IC50 values) turned out to be 2.67 fold.

For the compound `C[C@]12CC[C@@H]3c4ccc(Oc5ccccc5)cc4CC[C@H]3[C@@H]1CC[C@@H]2O` [PRU-8], the “effect/efficacy at ERα” value on human ERα was “strong effect”. Further, the IC50 stood at 38.6 µM at hTRPML3-YFP (setting [4]), 15.3 µM against hTRPML2-YFP (setting [5]) and 0.72 µM at hTRPML1∆NC-YFP [1]. The “TRPML isoform selectivity profile” value in the assay with hTRPML1∆NC-YFP [2] (TRPML1, 2, 3 and TPC2, Fluo-4) is on record as “further improved selectivity profile compared to EDME; also recorded: very good selectivity profile”. In the assay with hTRPML1∆NC-YFP [2] (ratio of Fluo-4 IC50 values), the “TRPML1:TRPML2 fold selectivity” value was 21.28 fold. In addition, in the assay with hTRPML1∆NC-YFP [2] (ratio of Fluo-4 IC50 values), the “TRPML1:TRPML3 fold selectivity” value worked out at 53.68 fold.
